Experimental data: patent publication US20250230138A1, “COMPOUNDS HAVING A T-STRUCTURE FORMED BY AT LEAST FOUR CYCLES FOR USE IN THE TREATMENT OF CANCER AND OTHER INDICATIONS” (TheRas, Inc., priority 2022, published 2025)
Where two headings read alike, the source gives them in different places.

Tests used:
[1] = molecular target: Cys242 in human PIK3CA (157-299) (Homo sapiens (Human), UniProt P42336); assay: Covalent modification assay using MALDI-TOF MS; assay type: biochemical; conditions: 4 h reaction time point
In short: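 PIK3CA (157-299) at 3.33 μM or 1 μM in 20 mM HEPES, 150 mM NaCl, 2 mM MgCl2, pH 7.3 was incubated with compound (from 10 mM DMSO stocks) in the dark at room temperature for 15 min, 30 min, 2 h or 4 h. Linear-mode MALDI-TOF peak heights gave percent modification.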

pAKT in BT474 cells = assay: Cell-based pAKT HTRF assay in BT474 cells; conditions: BT474 cells, 4 hr incubation, read-out: pAKT inhibition IC50 in BT474 cells
In short: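 Cells grown in DMEM with 10% FBS were exposed to compounds for 4 hr in 0.25% DMSO, using a 9-point, 3-fold dilution series that starts at 3 μM. Lysates were incubated with d2 and Eu Cryptate antibodies for 4–24 h at room temperature, and HTRF was read at 615 nm emission.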

[2] = 3.33 μM protein target, 1:7.5 protein to compound ratio (compounds 1-852)
[3] = Homo sapiens, BT-474, Compounds 10-999
[4] = 1 μM protein target, 1:5 protein to compound ratio (compounds 853-1279)

Cys242 in human PIK3CA (157-299), sequence (P42336 157-299): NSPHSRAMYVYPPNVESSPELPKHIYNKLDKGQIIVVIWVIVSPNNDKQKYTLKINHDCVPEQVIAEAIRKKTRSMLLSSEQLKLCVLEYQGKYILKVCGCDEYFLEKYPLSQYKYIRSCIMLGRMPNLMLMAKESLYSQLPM

Compound | % of modification [1, 2] | IC50 (pAKT in BT474 cells; Compounds 10-999) | IC50 (pAKT in BT474 cells; [3]) | % of modification [1, 4] | IC50 (pAKT in BT474 cells; Compounds 1000-1279)
C=CC(=O)N1CC(n2cc(-c3nc(N4CCn5cnnc5C4)c4ccsc4c3-c3ccc(F)cc3OCCOC)cn2)C1 [Compound 228] | A (percent of modification of PIK3CA protein ≥75%) | 100 to 1000 nM | – | – | –
C=CC(=O)N1CC(n2cc(-c3nc(-c4ccc5c(c4)CCNC5)c4ccsc4c3-c3ccc(F)cc3OC)ccc2=O)C1 [Compound 110, 5-[7-(4-fluoro-2-methoxy-phenyl)-4-(1,2,3,4-tetrahydroisoquinolin-6-yl)thieno[3,2-c]pyridin-6-yl]-1-(1-prop-2-enoylazetidin-3-yl)pyridin-2-one] | A (percent of modification of PIK3CA protein ≥75%) | – | 100 to 1000 nM | – | –
C=CC(=O)N1CCn2nc(-c3nc(-c4ccc(N(C)C)nc4)c4ccsc4c3-c3c(F)cc(F)cc3OCCO)cc2[C@@H]1C [Compound 957, 1-((S)-2-((S)-7-(2,4-difluoro-6-(2-hydroxyethoxy)phenyl)-4-(6-(dimethylamino)pyridin-3-yl)thieno[3,2-c]pyridin-6-yl)-4-methyl-6,7-dihydropyrazolo[1,5-a]pyrazin-5(4H)-yl)prop-2-en-1-one] | – | – | < 100 nM | A (percent of modification of PIK3CA protein ≥75%) | –
C=CC(=O)N1CCn2nc(-c3nc(-c4cnc5c(c4)CN(C)CC5)c4ccsc4c3-c3ccc(F)cc3OCCOC)cc2C1 [Compound 253] | A (percent of modification of PIK3CA protein ≥75%) | < 100 nM | – | – | –
CC=C(C#N)C(=O)N1CCn2nc(-c3nc(-c4ccc5c(cnn5C)c4)c4ccsc4c3-c3c(F)cc(F)cc3OCCOC)cc2C1C (stereo not shown) [Compound 1239] | – | – | – | C (25%≤percent of modification <50%) | > 1000 nM
C=CC(=O)N1Cc2cc(-c3nc(C45CC(CNC(C)=O)(C4)C5)c4ccsc4c3-c3c(F)cc(F)cc3OCCOC)nn2CC1C (stereo not shown) [Compound 1246] | – | – | – | B (50%<percent of modification <75%) | 100 to 1000 nM
C=CC(=O)N1CCn2nc(-c3nc(-c4cnc5cnn(C)c5c4)c4ccsc4c3-c3c(F)cc(F)cc3OCCOC)cc2C1C (stereo not shown) [Compound 902] | – | < 100 nM | – | A (percent of modification of PIK3CA protein ≥75%) | –
C=CC(=O)N1Cc2cc(-c3nc(-c4cnn(C)c4)c4ccsc4c3-c3c(F)cc(F)cc3OCCO)nn2[C@@H](C)C1 [Compound 567] | A (percent of modification of PIK3CA protein ≥75%) | < 100 nM | – | – | –
C=CC(=O)N1CCc2nc(-c3nc(-c4ccc(=O)n(C)c4)c4ccsc4c3-c3c(F)cc(F)cc3OCCOC)sc2C1 [Compound 997] | – | < 100 nM | – | A (percent of modification of PIK3CA protein ≥75%) | –
C=CC(=O)N1CCn2nc(-c3nc(-c4ccc5c(c4)CNC(=O)C5)c4ccsc4c3-c3c(F)cc(F)cc3OCC(C)(C)O)cc2C1C (stereo not shown) [Compound 1139] | – | – | – | A (percent of modification of PIK3CA protein ≥75%) | < 100 nM
C=CC(=O)N1Cc2cc(-c3nc(-c4cnnc(C)c4)c4ccsc4c3-c3c(F)cc(F)cc3OCCOC)nn2[C@@H](C)C1 [Compound 740] | A (percent of modification of PIK3CA protein ≥75%) | < 100 nM | – | – | –
C=CC(=O)N1CCn2nc(-c3nc(-c4cnc5c(c4)CN(C(C)C)CC5)c4ccsc4c3-c3c(F)cc(F)cc3OCCOC)cc2C1C (stereo not shown) [Compound 1093] | – | – | – | A (percent of modification of PIK3CA protein ≥75%) | < 100 nM
C=CC(=O)N1CCn2nc(-c3nc(N4CCC5(CN(C)C5)C4)c4ccsc4c3-c3c(F)cc(F)cc3OCCOC)cc2C1C (stereo not shown) [Compound 1055] | – | – | – | C (25%≤percent of modification <50%) | 100 to 1000 nM
C=CC(=O)N1CCn2nc(-c3nc(-c4cccc(CCN(C)C)c4)c4ccsc4c3-c3c(F)cc(F)cc3OCCOC)cc2C1C (stereo not shown) [Compound 1084] | – | – | – | A (percent of modification of PIK3CA protein ≥75%) | < 100 nM
C=CC(=O)N1CCc2ncc(-c3nc(-c4ccc5c(c4)CS(=O)(=O)C5)c4ccsc4c3-c3ccc(F)cc3OCCOC)cc2C1 [Compound 111] | A (percent of modification of PIK3CA protein ≥75%) | < 100 nM | – | – | –
C=CC(=O)N1CCn2nc(-c3nc(-c4cncc(OC5CN(C)C5)c4)c4ccsc4c3-c3c(F)cc(F)cc3OCCOC)cc2C1C (stereo not shown) [Compound 1203] | – | – | – | A (percent of modification of PIK3CA protein ≥75%) | < 100 nM

Compound | % of modification [1, 2] | IC50 (pAKT in BT474 cells; Compounds 10-999) | IC50 (pAKT in BT474 cells; [3]) | % of modification [1, 4] | IC50 (pAKT in BT474 cells; Compounds 1000-1279)
C=CC(=O)N1C[C@H](C)n2nc(-c3nc(-c4ccc5c(c4)CCN(C)C5)c4ccsc4c3-c3c(F)cc(F)cc3OCCOC)cc2[C@@H]1C [Compound 601, 1-[(4S,7S)-2-[7-[2,4-difluoro-6-(2-methoxyethoxy)phenyl]-4-(2-methyl-3,4-dihydro-1H-isoquinolin-6-yl)thieno[3,2-c]pyridin-6-yl]-4,7-dimethyl-6,7-dihydro-4H-pyrazolo[1,5-a]pyrazin-5-yl]prop-2-en-1-one] | A (percent of modification of PIK3CA protein ≥75%) | – | < 100 nM | – | –
C=CC(=O)N1CCc2nc(-c3nc(-c4ccc5c(c4)CCN(C)C5)c4ccsc4c3-c3c(F)cc(F)cc3OCCOC)sc2C1 [Compound 369] | A (percent of modification of PIK3CA protein ≥75%) | < 100 nM | – | – | –
C=C(F)C(=O)N1CCn2nc(-c3nc(-c4cnc5c(c4)CNC5=O)c4ccsc4c3-c3c(F)cc(F)cc3OC(C)C)cc2C1 [Compound 356] | A (percent of modification of PIK3CA protein ≥75%) | < 100 nM | – | – | –
C=CC(=O)N1CC(n2cc(-c3nc(-c4ccc5c(c4)CCNC5)c4ccsc4c3-c3ccc(F)cc3C(F)F)cn2)C1 [Compound 120] | A (percent of modification of PIK3CA protein ≥75%) | 100 to 1000 nM | – | – | –
C=CC(=O)N1CCn2nc(-c3nc(-c4ccc5c(c4)CNC(=O)C5(C)C)c4ccsc4c3-c3c(F)cc(F)cc3OCCOC)cc2C1C (stereo not shown) [Compound 1079] | – | – | – | A (percent of modification of PIK3CA protein ≥75%) | < 100 nM
C=CC(=O)N1CCn2nc(-c3nc(-c4ccc5cn(C)nc5c4)c4ccsc4c3-c3c(F)cc(F)cc3OCCO)cc2[C@@H]1C [Compound 780] | A (percent of modification of PIK3CA protein ≥75%) | < 100 nM | – | – | –
C=CC(=O)N1CCn2nc(-c3nc(-c4ccc5c(c4)CN(CC(F)(F)F)CC5)c4ccsc4c3-c3c(F)cc(F)cc3OCCO)cc2C1C (stereo not shown) [Compound 1250] | – | – | – | A (percent of modification of PIK3CA protein ≥75%) | < 100 nM
C=CC(=O)N1Cc2cc(-c3nc(-c4cn(C)cn4)c4ccsc4c3-c3c(F)cc(F)cc3OC(C)C)nn2CC1C (stereo not shown) [Compound 496] | A (percent of modification of PIK3CA protein ≥75%) | < 100 nM | – | – | –
C=C(F)C(=O)N1CCn2nc(-c3nc(-c4ccc5c(c4)CCN(C)C5)c4ccsc4c3-c3c(F)cc(F)cc3OC(C)C)nc2C1 [Compound 314] | A (percent of modification of PIK3CA protein ≥75%) | < 100 nM | – | – | –
C=CC(=O)N1CCn2nc(-c3nc(-c4ccc5c(c4)C4(CC4)CN(C)C5)c4ccsc4c3-c3c(F)cc(F)cc3OCCOC)cc2C1C (stereo not shown) [Compound 1193] | – | – | – | A (percent of modification of PIK3CA protein ≥75%) | < 100 nM
C=CC(=O)N1CCC(n2cc(-c3nc(-c4ccc5c(c4)CNC(=O)C5)c4ccsc4c3-c3ccc(F)cc3)cn2)CC1 [Compound 69] | A (percent of modification of PIK3CA protein ≥75%) | 1000 to 3000 nM | – | – | –
C=CC(=O)N1CCn2ncc(-c3nc(-c4ccc5c(c4)CCNC5)c4ccsc4c3-c3ccc(F)cc3OCCOC)c2C1 [Compound 77] | D (percent of modification <25%) | > 3000 nM | – | – | –
C=CC(=O)N1CC[C@H](n2cc(-c3nc(-c4ccc5c(c4)CCNC5)c4ccsc4c3-c3ccc(F)cc3OCCOC)ccc2=O)[C@H]1C [Compound 188] | A (percent of modification of PIK3CA protein ≥75%) | 100 to 1000 nM | – | – | –
C=CC(=O)N1CCn2nc(-c3nc(-c4ccn5ccnc5c4)c4ccsc4c3-c3c(F)cc(F)cc3OCCOC)cc2C1C (stereo not shown) [Compound 1040] | – | – | – | A (percent of modification of PIK3CA protein ≥75%) | < 100 nM
C=CC(=O)N1CCc2nc(-c3nc(-c4ccc5c(c4)C(N)CC5)c4ccsc4c3-c3ccc(F)cc3OCCOC)sc2C1 (stereo not shown) [Compound 162] | A (percent of modification of PIK3CA protein ≥75%) | < 100 nM | – | – | –
C=CC(=O)N1CCn2nc(-c3nc(-c4cnc5c(c4)CN(C)C5=O)c4ccsc4c3-c3c(F)cc(F)cc3OCCOC)cc2C1C (stereo not shown) [Compound 553] | A (percent of modification of PIK3CA protein ≥75%) | < 100 nM | – | – | –
